For the test, the system named is 422866-222-R5-J1-PDC spheroid viability. Nature of the test: Anticancer human tumor 422866-222-R5-J1-PDC patient-derived pancreatic adenocarcinoma cell line growth inhibition [CLK]. Conditions: spheroids with HUVEC and MSC; for viability, T/C: stronger effect = lower value. The text has this:
A high-throughput screen of multi-cell type tumor spheroids was designed to identify active combinations of […] and targeted small molecules. Complex spheroids include a stromal component modeled by human endothelial cells (HUVEC) and fibroblasts modeled by human mesenchymal stem cells (MSCs). The concentration ranges selected for each drug and investigational agent were based upon clinically achievable concentrations if the clinical Cmax of the agent was known.
Compounds. The drugs and investigational agents: cirtuvivint (SM08502; NSC835563), CC-671 (NSC850746), vemurafenib (NSC761431), tapotoclax (NSC804041), sotorasib (NSC818433), adagrasib (NSC831453), MRTX-1133 (NSC836407), BAY2416964 (NSC825713), copanlisib (NSC816437), inavolisib (NSC800729), abemaciclib (NSC768073), osimertinib (NSC779217), entinostat (NSC756642), eltanexor (KPT-8602, NSC794443), venetoclax (NSC766270), ceralasertib (NSC777638), bortezomib (NSC756655), olaparib (NSC753686), talazoparib (NSC767125), alisertib (NSC759677), peposertib (NSC802822), gemcitabine (NSC613327), 5-fluorouracil (NSC19893), SN-38 (NSC673596), oxaliplatin (NSC266046), paclitaxel (NSC125973), and doxorubicin (NSC123127), were obtained from the National Cancer Institute (NCI) Developmental Therapeutics Program Chemical Repository. The FDA-approved anticancer drug set is available from the Developmental Therapeutics Program at https://dtp.cancer.gov/organization/dscb/obtaining/available plates.htm. […] The stock solutions were prepared in dimethyl sulfoxide (DMSO, Sigma-Aldrich, St. Louis, MO, cat. D2650), except for the platinum complexes which were prepared in saline (Quality Biological, Gaithersburg, MD, cat. 114-055-101), at 800-fold the tested concentration and stored at -70 degrees C prior to their use. All drugs and investigational agents were tested over a range starting from a high concentration at or near the clinical Cmax and decreasing in half-log increments. If the clinical Cmax for an agent had not been determined, the highest concentration tested was 10 microM.
Cell Culture. All cells were maintained in an incubator at 37 degrees C and 5% CO2 with 95% humidity. The PDC lines were cultured according to standard operating procedures established by the NCI PDMR. Briefly, all PDCs were thawed and cultured in Matrigel-coated flasks prepared with a working solution of 1X Ham's F-12 nutrient mix, without supplementation (Invitrogen, Waltham, MA, cat. 11765054), 100 U/mL penicillin-streptomycin (Invitrogen, cat. 15140122), and 2.5% Matrigel (Corning Inc., Corning, NY, cat. 354248) for the first three passages. The 947758-054-R-J2-PDC line was cultured in 6B/Colon 1A media, which includes advanced DMEM/F-12 (Thermo Fisher Scientific, cat. 12634028), 10 mM HEPES (Thermo Fisher Scientific, cat. 15630080), 1X GlutaMAX supplement (Thermo Fisher Scientific, cat. 35050061), 0.1 mg/mL primocin (InvivoGen, cat. ant-pm-2), 10% defined fetal bovine serum, heat inactivated (HyClone Laboratories Inc., cat. SH30070.03HI), 1.25 mM N-Acetyl-L-cysteine (Sigma-Aldrich, cat. A9165), 10 mM nicotinamide (Sigma-Aldrich, cat. N0636), 1X B-27 supplement (Thermo Fisher Scientific, cat. 17504044), 1X N-2 supplement (Thermo Fisher Scientific, cat. 17502048), and 10 microM Y-27632 dihydrochloride (Tocris Bioscience, cat. 1254). The 876862-298-R-J1-PDC was cultured in 6E media, which includes all 6B/Colon 1A media components plus 50% L-WRN conditioned media (ATCC, cat. CRL-3276), 50 ng/mL recombinant human EGF recombinant protein (hEGF; Thermo Fisher Scientific, cat. PHG0311), 10 ng/mL recombinant human fibroblast growth factor 10 (hGFG-10; PeproTech, cat. 100-26), 1 ng/mL recombinant human fibroblast growth factor 2 (hFGF-2; PeproTech, cat. 100-18B), and 1 µM prostaglandin E2 (PGE2; Tocris, cat. 2296). The 227483-062-R1-J1-PDC line was cultured in Panc media, containing all 6E components except hFGF-2, with the addition of 500 nM SB-431542 (Selleckchem, cat. S1067) and 10 nM gastrin (Tocris, cat. 3006). […]

Broadly, the viability, T/C is the ratio of treated to control. The term IC50 denotes the point on the concentration scale where inhibition reaches its midpoint.

Several values for one entry are separate records, joined by “and”; a condition that tells them apart may be missing. Identical values can stand only once.
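Also: spheroids exposed to agents for seven days before readout.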

In the case of `CC1COCCN1c1cc(C2(S(C)(=N)=O)CC2)nc(-c2ccnc3[nH]ccc23)n1` (stereo unspecified), the viability, T/C is 94.6% and 88.6% (compound 0.0316 µM); 92.4% and 94.7% (compound 0.1 µM); 97.3% and 95.7% (compound 0.316 µM); 94.2% and 94.3% (compound 1 µM); 66.9% and 58.5% (compound 3.16 µM); 54.5% and 47.8% (compound 10 µM). Besides, the IC50 (curve of compound) is > 10000 nM and 7890 nM.
As to `C=C(F)C(=O)N1CCN(c2nc(OCC3CCCN3C)nc3c2CCN(c2cccc4cccc(Cl)c24)C3)CC1CC#N` (stereo unspecified) + CNC(=O)c1ccc(Nc2nc(OC3CCCC3)c3c(-c4ccc5nc(C)oc5c4)c[nH]c3n2)c(OC)c1, the IC50 is, setting by setting: (curve of first compound, second compound 0.0316 µM) less than 31.6 nM; (curve of first compound, second compound 0.1 µM) less than 31.6 nM; (curve of first compound, second compound 0.316 µM) less than 31.6 nM; (curve of first compound, second compound 1 µM) less than 31.6 nM; (curve of first compound, second compound 3.16 µM) less than 31.6 nM; (curve of first compound, second compound 10 µM) less than 31.6 nM. Besides, the viability, T/C was 39.9% (second compound 0.0316 µM, first compound 0.0316 µM); 29.7% (second compound 0.0316 µM, first compound 0.1 µM); 23.2% (second compound 0.0316 µM, first compound 0.316 µM); 25.3% (second compound 0.0316 µM, first compound 1 µM); 15.7% (second compound 0.0316 µM, first compound 3.16 µM); 0.15% (second compound 0.0316 µM, first compound 10 µM). The viability, T/C runs as follows: (second compound 0.1 µM, first compound 0.0316 µM) 38.7%; (second compound 0.1 µM, first compound 0.1 µM) 23.9%; (second compound 0.1 µM, first compound 0.316 µM) 23.3%; (second compound 0.1 µM, first compound 1 µM) 20.6%; (second compound 0.1 µM, first compound 3.16 µM) 15%; (second compound 0.1 µM, first compound 10 µM) 0.14%. The viability, T/C was 29.8% (second compound 0.316 µM, first compound 0.0316 µM); 23.6% (second compound 0.316 µM, first compound 0.1 µM); 25.1% (second compound 0.316 µM, first compound 0.316 µM); 23.1% (second compound 0.316 µM, first compound 1 µM); 14.8% (second compound 0.316 µM, first compound 3.16 µM); 0.14% (second compound 0.316 µM, first compound 10 µM). The viability, T/C runs as follows: (second compound 1 µM, first compound 0.0316 µM) 30.3%; (second compound 1 µM, first compound 0.1 µM) 24.8%; (second compound 1 µM, first compound 0.316 µM) 22.4%; (second compound 1 µM, first compound 1 µM) 23.3%; (second compound 1 µM, first compound 3.16 µM) 18.2%; (second compound 1 µM, first compound 10 µM) 4.65%. For the same compound, the viability, T/C runs as follows: (second compound 3.16 µM, first compound 0.0316 µM) 28.4%; (second compound 3.16 µM, first compound 0.1 µM) 29.2%; (second compound 3.16 µM, first compound 0.316 µM) 24.5%; (second compound 3.16 µM, first compound 1 µM) 25%; (second compound 3.16 µM, first compound 3.16 µM) 20.4%; (second compound 3.16 µM, first compound 10 µM) 0.15%. For the same compound, the viability, T/C is 30% (second compound 10 µM, first compound 0.0316 µM); 28.4% (second compound 10 µM, first compound 0.1 µM); 28.1% (second compound 10 µM, first compound 0.316 µM); 24.6% (second compound 10 µM, first compound 1 µM); 18.5% (second compound 10 µM, first compound 3.16 µM); 0.17% (second compound 10 µM, first compound 10 µM).
`O=C(c1cc(Cc2n[nH]c(=O)c3ccccc23)ccc1F)N1CCN(C(=O)C2CC2)CC1`: the viability, T/C was 99% and 103% (compound 0.0316 µM); 94% and 98.7% (compound 0.1 µM); 102% and 87.7% (compound 0.316 µM); 102% and 105% (compound 1 µM); 80.1% and 94% (compound 3.16 µM); 81.2% and 78.8% (compound 10 µM). For the same compound, the IC50 (curve of compound) is more than 10000 nM.
